Experimental data taken from patent publication US20150231236A1, “METHODS FOR TREATING PATIENTS WITH HYPERCHOLESTEROLEMIA THAT IS NOT ADEQUATELY CONTROLLED BY MODERATE-DOSE STATIN THERAPY” (Regeneron Pharmaceuticals, Inc., priority 2014, published 2015).

Legend:
[1] = tested on: patients with hypercholesterolemia at high CV risk not adequately controlled with atorvastatin (20 mg or 40 mg); assay: Example 2: randomized, double-blind trial, lipid efficacy of mAb316P add-on to atorvastatin vs EZE add-on, atorvastatin dose doubling or switch to rosuvastatin; format: in vivo, human; conditions: for reduced LDL-C levels by: week 24, add-on mAb316P
Description: The present study was a randomized, double-blind, active-comparator, parallel-group study in patients at high CV risk with non-FH or heFH who are not adequately controlled with atorvastatin (20 mg or 40 mg) with or without other lipid-modifying therapy (LMT) (excluding EZE). The study design is illustrated in FIG. 1. Patients who entered the study were taking either atorvastatin 20 mg or atorvastatin 40 mg. The former patients were randomized to 1 of 3 treatment arms (arms 1 to 3); the latter patients were randomized to 1 of 4 treatment arms (arms 4 to 7). The treatment arms are as follows:
(1) mAb316P+atorvastatin 20 mg+placebo-EZE; (2) Placebo-mAb316P+atorvastatin 40 mg+placebo-EZE; and (3) Placebo-mAb316P+atorvastatin 20 mg+EZE 10 mg.
(4) mAb316P+atorvastatin 40 mg+placebo-EZE; (5) Placebo-mAb316P+atorvastatin 80 mg+placebo-EZE; (6). Placebo-mAb316P+rosuvastatin 40 mg+placebo-EZE; and (7) Placebo-mAb316P+atorvastatin 40 mg+EZE 10 mg.
(B) a double-blind treatment period of 24 weeks. Each patient received a SC injection Q2W (mAb316P or placebo-mAb316P) and was administered (or instructed to take) 2 oral blinded medications daily (a statin [atorvastatin or rosuvastatin] and EZE or placebo-EZE). The first injection of mAb316P or placebo-mAb316P was administered at the clinical site on day 1, after study assessments were completed, and as soon as possible after the patient was randomized into the study. The patient/caregiver administered subsequent injections outside of the clinic according to the dosing schedule. On days where the clinic study visit coincided with dosing, the dose of study drugs (injectable and oral) were administered after all study assessments had been performed and all laboratory samples collected. The last dose of mAb316P or placebo-mAb316P was administered at week 22. The last dose of daily oral study drugs was administered at week 24. At week 12, based on their baseline CV risk, certain patients randomized to mAb316P in a blinded manner, had their dose increased as follows:
Each patient received a subcutaneous (SC) injection once every two weeks (Q2W) (mAb316P or placebo-mAb316P) and took 2 oral blinded medications daily (a statin [atorvastatin or rosuvastatin] and EZE or placebo-EZE).
The injectable study treatment was a single SC injection of 1 mL for a 75 mg or 150 mg dose of mAb316P or placebo-mAb316P provided in an auto-injector, administered in the abdomen, thigh, or outer area of the upper arm. The first injection of study drug was administered at the clinical site, as soon as possible after the patient was randomized into the study. The patient was monitored at the clinical site for at least 30 minutes following the first injection. The patient/caregiver administered subsequent injections outside of the clinic, according to the dosing schedule. On days where the clinic study visit coincided with dosing, the dose of study drug was administered after all study assessments have been performed and all laboratory samples collected.
The dose of mAb316P was increased, in a blinded manner, from 75 mg to 150 mg SC Q2W, starting at week 12, based on baseline CV risk in the following circumstances:
The primary efficacy endpoint was the percent change in calculated LDL-C from baseline to week 24, which is defined as: 100× (calculated LDL-C value at week 24−calculated LDL-C value at baseline)/calculated LDL-C value at baseline. The baseline calculated LDL-C value was the last LDL-C level obtained before the first double-blind study drug injection. The calculated LDL-C at week 24 will be the LDL-C level obtained within the week 24 analysis window and during the main efficacy period. The main efficacy period was defined as the time from the first double-blind study drug injection up to 21 days after the last double-blind study drug injection or up to the upper limit of the week 24 analysis window, whichever comes first.
Total-C, HDL-C, TG, ApoB, ApoA-1, and Lp (a) were directly measured by a central laboratory. […]

[2] = tested on: patients with hypercholesterolemia at high CV risk not adequately controlled with rosuvastatin (10 mg or 20 mg); assay: Example 3: safety, treatment-emergent adverse events in pooled treatment groups; conditions: mAb316P group
[3] = ITT Population, Comparison 1: mAb316P + atorva 20 mg arm vs. atorva 40 mg arm
[4] = ITT Population, Comparison 2: mAb316P + atorva 20 mg arm vs. EZE + atorva 20 mg arm
[5] = ITT Population, Comparison 3: mAb316P + atorva 40 mg arm vs. atorva 80 mg arm
[6] = ITT Population, Comparison 4: mAb316P + atorva 40 mg arm vs. rosuva 40 mg arm
[7] = ITT Population, Comparison 5: mAb316P + atorva 40 mg arm vs. EZE + atorva 40 mg arm
[8] = mITT Population, Comparison 1: mAb316P + atorva 20 mg arm vs. atorva 40 mg arm
[9] = mITT Population, Comparison 2: mAb316P + atorva 20 mg arm vs. EZE + atorva 20 mg arm
[10] = mITT Population, Comparison 3: mAb316P + atorva 40 mg arm vs. atorva 80 mg arm
[11] = mITT Population, Comparison 4: mAb316P + atorva 40 mg arm vs. rosuva 40 mg arm
[12] = mITT Population, Comparison 5: mAb316P + atorva 40 mg arm vs. EZE + atorva 40 mg arm

## mAb316P: human anti-PCSK9 antibody; heavy chain SEQ ID NO:5, light chain SEQ ID NO:9
[1]; [3]
  Delta, percent change from baseline of Apo B to week 24: −29.3%
  Delta, percent change from baseline of Apo-B to week 12: −31.5%
  Delta, percent change from baseline of HDL-C to week 24: 2.9%
  Delta, percent change from baseline of Lp(a) to week 24: −3.4%
  Delta, percent change from baseline of Non-HDL-C to week 12: −33.5%
  Delta, percent change from baseline of Total-C to week 12: −22.6%
  Delta, percent change from baseline of Total-C to week 24: −23.1%
  Delta, percent change from baseline of calculated LDL-C to week 12: −39.8%
  Delta, percent change from baseline of calculated LDL-C to week 24: −39.1%
  Delta, percent change from baseline of non-HDL-C to week 24: −30.4%
  Odds Ratio, proportion of patients reaching calculated LDL-C < 70 mg/dL at Week 24: 28.9
  Odds Ratio, proportion of very high CV risk patients reaching calculated LDL-C < 70 mg/dL or high CV risk patients reaching calculated LDL-C < 100 mg/dL at Week 24: 16.3
[1]; [4]
  Delta, percent change from baseline of Apo B to week 24: −23.6%
  Delta, percent change from baseline of Apo-B to week 12: −25.3%
  Delta, percent change from baseline of HDL-C to week 24: 4.9%
  Delta, percent change from baseline of Lp(a) to week 24: −13.0%
  Delta, percent change from baseline of Non-HDL-C to week 12: −23.4%
  Delta, percent change from baseline of Total-C to week 12: −15.8%
  Delta, percent change from baseline of Total-C to week 24: −15.8%
  Delta, percent change from baseline of calculated LDL-C to week 12: −25.8%
  Delta, percent change from baseline of calculated LDL-C to week 24: −23.6%
  Delta, percent change from baseline of non-HDL-C to week 24: −21.6%
  Odds Ratio, proportion of patients reaching calculated LDL-C < 70 mg/dL at Week 24: 4.7
  Odds Ratio, proportion of very high CV risk patients reaching calculated LDL-C < 70 mg/dL or high CV risk patients reaching calculated LDL-C < 100 mg/dL at Week 24: 3.7
[1]; [5]
  Delta, percent change from baseline of Apo B to week 24: −38.4%
  Delta, percent change from baseline of Apo-B to week 12: −26.7%
  Delta, percent change from baseline of HDL-C to week 24: 2.9%
  Delta, percent change from baseline of Lp(a) to week 24: −21.1%
  Delta, percent change from baseline of Non-HDL-C to week 12: −29.3%
  Delta, percent change from baseline of Total-C to week 12: −19.1%
  Delta, percent change from baseline of Total-C to week 24: −28.9%
  Delta, percent change from baseline of calculated LDL-C to week 12: −36.0%
  Delta, percent change from baseline of calculated LDL-C to week 24: −49.2%
  Delta, percent change from baseline of non-HDL-C to week 24: −41.1%
  Odds Ratio, proportion of patients reaching calculated LDL-C < 70 mg/dL at Week 24: 116.8
  Odds Ratio, proportion of very high CV risk patients reaching calculated LDL-C < 70 mg/dL or high CV risk patients reaching calculated LDL-C < 100 mg/dL at Week 24: 92.5
[1]; [6]
  Delta, percent change from baseline of Apo B to week 24: −30.9%
  Delta, percent change from baseline of Apo-B to week 12: −22.2%
  Delta, percent change from baseline of HDL-C to week 24: 2.0%
  Delta, percent change from baseline of Lp(a) to week 24: −25.9%
  Delta, percent change from baseline of Non-HDL-C to week 12: −22.5%
  Delta, percent change from baseline of Total-C to week 12: −15.4%
  Delta, percent change from baseline of Total-C to week 24: −21.9%
  Delta, percent change from baseline of calculated LDL-C to week 12: −27.3%
  Delta, percent change from baseline of calculated LDL-C to week 24: −32.6%
  Delta, percent change from baseline of non-HDL-C to week 24: −30.2%
  Odds Ratio, proportion of patients reaching calculated LDL-C < 70 mg/dL at Week 24: 13.2
  Odds Ratio, proportion of very high CV risk patients reaching calculated LDL-C < 70 mg/dL or high CV risk patients reaching calculated LDL-C < 100 mg/dL at Week 24: 6.1
[1]; [7]
  Delta, percent change from baseline of Apo B to week 24: −27.6%
  Delta, percent change from baseline of Apo-B to week 12: −15.9%
  Delta, percent change from baseline of HDL-C to week 24: 5.6%
  Delta, percent change from baseline of Lp(a) to week 24: −31.0%
  Delta, percent change from baseline of Non-HDL-C to week 12: −14.8%
  Delta, percent change from baseline of Total-C to week 12: −9.8%
  Delta, percent change from baseline of Total-C to week 24: −18.4%
  Delta, percent change from baseline of calculated LDL-C to week 12: −20.9%
  Delta, percent change from baseline of calculated LDL-C to week 24: −31.4%
  Delta, percent change from baseline of non-HDL-C to week 24: −26.6%
  Odds Ratio, proportion of patients reaching calculated LDL-C < 70 mg/dL at Week 24: 9.9
  Odds Ratio, proportion of very high CV risk patients reaching calculated LDL-C < 70 mg/dL or high CV risk patients reaching calculated LDL-C < 100 mg/dL at Week 24: 7.9
[1]; Week 24, calculated LDL-C, across atorvastatin 20 mg and 40 mg regimens
  patients achieving the more stringent LDL-C goal of <70 mg/dL: 77-79%
[1]; atorvastatin 20 mg regimen, add-on ezetimibe or doubling of atorvastatin dose
  reduced LDL-C levels by: 44.1%
[1]; atorvastatin 40 mg regimen, add-on ezetimibe, doubling of atorvastatin dose or switch to rosuvastatin 40 mg
  reduced LDL-C levels by: 54.0%
[1]; [8]
  Delta, percent change from baseline of Apo B to week 24: −32.6%
  Delta, percent change from baseline of calculated LDL-C to week 12: −44.5%
  Delta, percent change from baseline of calculated LDL-C to week 24: −42.5%
  Delta, percent change from baseline of non-HDL-C to week 24: −33.0%
  Odds Ratio, proportion of patients reaching calculated LDL-C < 70 mg/dL at Week 24: 28.8
  Odds Ratio, proportion of very high CV risk patients reaching calculated LDL-C < 70 mg/dL or high CV risk patients reaching calculated LDL-C < 100 mg/dL at Week 24: 24.6
[1]; [9]
  Delta, percent change from baseline of Apo B to week 24: −25.1%
  Delta, percent change from baseline of calculated LDL-C to week 12: −26.6%
  Delta, percent change from baseline of calculated LDL-C to week 24: −24.9%
  Delta, percent change from baseline of non-HDL-C to week 24: −22.4%
  Odds Ratio, proportion of patients reaching calculated LDL-C < 70 mg/dL at Week 24: 4.8
  Odds Ratio, proportion of very high CV risk patients reaching calculated LDL-C < 70 mg/dL or high CV risk patients reaching calculated LDL-C < 100 mg/dL at Week 24: 5.0
[1]; [10]
  Delta, percent change from baseline of Apo B to week 24: −38.3%
  Delta, percent change from baseline of calculated LDL-C to week 12: −36.3%
  Delta, percent change from baseline of calculated LDL-C to week 24: −52.8%
  Delta, percent change from baseline of non-HDL-C to week 24: −43.6%
  Odds Ratio, proportion of patients reaching calculated LDL-C < 70 mg/dL at Week 24: 162.1
  Odds Ratio, proportion of very high CV risk patients reaching calculated LDL-C < 70 mg/dL or high CV risk patients reaching calculated LDL-C < 100 mg/dL at Week 24: 130.8
[1]; [11]
  Delta, percent change from baseline of Apo B to week 24: −29.8%
  Delta, percent change from baseline of calculated LDL-C to week 12: −27.7%
  Delta, percent change from baseline of calculated LDL-C to week 24: −35.0%
  Delta, percent change from baseline of non-HDL-C to week 24: −32.1%
  Odds Ratio, proportion of patients reaching calculated LDL-C < 70 mg/dL at Week 24: 19.8
  Odds Ratio, proportion of very high CV risk patients reaching calculated LDL-C < 70 mg/dL or high CV risk patients reaching calculated LDL-C < 100 mg/dL at Week 24: 8.5
[1]; [12]
  Delta, percent change from baseline of Apo B to week 24: −26.4%
  Delta, percent change from baseline of calculated LDL-C to week 12: −20.2%
  Delta, percent change from baseline of calculated LDL-C to week 24: −33.4%
  Delta, percent change from baseline of non-HDL-C to week 24: −27.3%
  Odds Ratio, proportion of patients reaching calculated LDL-C < 70 mg/dL at Week 24: 13.9
  Odds Ratio, proportion of very high CV risk patients reaching calculated LDL-C < 70 mg/dL or high CV risk patients reaching calculated LDL-C < 100 mg/dL at Week 24: 10.8
[2]
  TEAE influenza: 4 patients
  TEAE upper respiratory tract infection: 6 patients
  TEAE urinary tract infection: 4 patients
